Entries after “also recorded” stand apart in the source; their conditions may differ.
Experiments:
[1] = Conductivity of ETE-S polymerized in air; type: physicochemical
Experimental: The conductivity of ETE-S based wires was measured using two Au probes applied into individual xylem wires along the stem (Fig. 38) and found to be equal to 7.25 +- 3.38 S/cm (n=17). […] The high conductivity was retained for cm scale wires showing that good interconnectivity is achieved along the xylem wires. […] The conductivity of 10mg/ml solution is 10^-5 S/cm while for 50mg/ml is on the order of 10^-3S/CM. In the plants we typically administrate 5ml solution of 1mg/ml concentration. An estimation of the total volume of the xylem tubing in a rose cutting of 15cm is 0.15ml taking into account an average diameter of xylem to be 20um. For this volume and since all the solution is taken up form the plant we end up with concentrations of the ETE-S molecule in the order of 30mg/ml. From microscopy images we see that approximately only 10% of the xylem is filled, while the majority of the rest is coated with the material and for that volume we have concentrations up to 300mg/ml. This high concentration in the plant allows the material to organize and polymerize in a way that creates highly conducting wires.

[2] = Xylem supercapacitor, specific capacitance of xylem wire electrodes; type: physicochemical, rose; details: from slope of capacitance per area vs length of xylem wire
From the text: Plant's anatomy upon functionalization with the conducting material provides an ideal architecture for developing supercapacitors in vivo. The long-range conducting xylem wires are parallel and electronically isolated to each other while are surrounded with cellular domains and extracellular space rich in electrolyte. Therefore we explored the charge storage capacity of the xylem wires. Two parallel xylem wires served as the electrodes (capacitor plates) and the plant tissue in between them the spacer. Two Au probes defined the electrodes contacts. In the schematic of Fig. 36.a we show the general structure and the wiring of a supercapacitor along with the optical micrograph of the corresponding supercapacitor in the plant Fig. 36.b.
From the slope of the discharging curve we calculate the capacitance of the device equal to 1.3 10^-4 F The capacitive behavior of the material is indicated and by the square shaped voltamogramm Fig. 43 in the potential range of -0.5V - 0.5V. In order to extract the specific capacitance of the xylem electrodes we measure devices of various dimensions. Xylem wires have typically diameter of 30-50um and lengths in the cm scale. In Fig. 36.d. we show the capacitance per area (diameter of xylem wire) vs the length. From the slope we calculated the specific capacitance and found it equal to 20F/cm3, a value in the typical range for conducting polymers. […]

[3] = Two-probe conductivity measurement of conducting wires in rose xylem; type: physicochemical, Rosa floribunda; details: xylem wires in rose stem, two Au probes
Experimental: We chose to use cuttings of Rosa floribunda (garden rose) as our model plant system. The lower part of a rose stem was cut and the fresh cross section was immersed in an aqueous PEDOT-S:H solution for 24-48 h (Fig. 7A), during which time the PEDOT-S:H solution was taken up into the xylem vascular channel and transported apically. The rose was taken from the solution and rinsed in water. The outer bark, cortex and phloem of the bottom part of the stem were then gently peeled off, exposing dark continuous lines along individual 20-100 µm wide xylem channels (Fig. 7B-D). These "wires" extended more than 5 cm along the stem. […] The conductivity of PEDOT-S:H wires was measured using two Au probes applied into individual PEDOT-S:H xylem wires along the stem (Fig. 7D). From the linear fit of resistance versus distance between the contacts, we found electrical conductivity reading 0.13 S/cm with contact resistance ∼10 kΩ (Fig. 7E). […]
Figure 29A is an external views of a plant part, in this case the steam where the epidermis has been peeled off, also showing two gold plated microelectrodes 2300 used to contact and penetrate a surface of the stem in order to reach the xylem channel. […] This is the currently highest measured electronic conductivity in a plant. […]

young bean plant = assay: Immersion of bean plant roots or stem in compound 1 solution, plant survival and growth; type: in vivo; details: roots or stem immersed in 1 mg/mL aqueous solution; replanted in gel
Experimental: Figure 16A-E illustrates another experiment, with references to the alphabetical parts of figure in parenthesis. A young bean plant having a plurality of roots was used as a test specimen. In (A) the roots of the young bean plant were planted in a plastic container having Seedhru® gel as a soil substitute.. Two of the roots of the bean plant were immersed in a vial 1600 (B) containing aqueous solution of compound 1 (1 mg/mL). […] As soon as or shortly after the two roots were immersed the color of the compound 1 solution shifted from white to pink (D) and then back to white again. The reason of the color shift is still being investigated. […] After 24 hours one of the roots was removed from the compound 1 solution and can be seen in (E) and in figure 17. The other root was left immersed in the compound 1 solution for 24 more hours (total 48hours). After 48 hours the second root was cut of the bean plant and can be seen in figure 18.. Note that the part of the root which was immersed in compound 1 is now coated with polymerized compound 1 as indicated by the darker color. […]

[4] = Cyclic voltammetry, onset potential of polymerization; type: physicochemical; details: 1 mg/ml in 0.01 M NaCl, ITO working electrode, Ag/AgCl reference, 50 mV/s
Experimental: In order to define the on-set potential of the polymerization of the trimer a three electrode setup was used. The working electrode is an ITO coated glass, the counter electrode is a Platinum sheet and the reference electrode is an Ag/AgCl saturated electrode. The electrolyte was 1mg/ml of compound 1 in 0.01M NaCl. The active area of the ITO was 21mm x 8mm. A cyclic voltametry was performed in order to define the onset potential. The potential was applied between the working and the reference electrode while the current was measured between the working and the counter electrode. The potential was scanned from +0.5V to -0.5V, starting from 0V with a scan rate of 50mV/s. During the first scan current increases at around +0.3V defining the onset potential of the polymerization were observed. The polymer is deposited on the active area of the ITO coated glass.
In order to define the on-set potential of the polymerization of the trimer we used a three electrode setup. The working electrode is an ITO coated glass, the counter electrode is a Platinum sheet and the reference electrode is a Ag/AgCl saturated electrode. The electrolyte was 1 mg/ml of compound 1 in 0.01 M NaCl. The active area of the ITO was 21 mm x 8 mm. […] The potential was applied between the working and the reference electrode while the current was measured between the working and the counter electrode. […]

conductivity ([1]; 10mg/ml solution)	conductivity ([1]; 50mg/ml solution)	specific capacitance [2]	electrical conductivity [3]	onset potential of the polymerization [4]	Compound	growth or survival of the plant (young bean plant)
10^-5 S/cm	~10^-3 S/CM	20 F/cm3	approximately 1.5 S/cm	–	exo-EDOT-Thiophene-EDOT-alkoxylfonate [compound 1]	survives for at least two weeks; also recorded: showed further growth
–	–	–	–	1.1 V	c1scc2c1OCCO2 [EDOT]	–

From patent EP3118613B1, “ELECTRIC COMPONENT WITH ORGANIC PART” (ACREO SWEDISH ICT AB, priority 2015, dated 2017)
